Patent US11434203B2, “8-hydroxyquinoline derivatives as diagnostic and therapeutic agents” (The General Hospital Corporation, priority 2015, dated 2022)
Where two headings read alike, the source gives them in different places.

How the values were obtained:
[1] = target: T1, soluble Aβ oligomers (Human A 1-42) (Homo sapiens, UniProt P05067); assay: Aβ aggregation assay (bis-ANS): reversal of aggregation of soluble Aβ oligomers; assay type: biochemical
T1 construct: Human A 1-42 (China Peptide); purchased China Peptide
T1 sequence (P05067 672-713): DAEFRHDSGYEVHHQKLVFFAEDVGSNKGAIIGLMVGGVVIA
Excerpt: 4,4(′)-dianilino-1,1(′)-binaphthyl-5,5(′)-disulfonate (bis-ANS, Sigma) was used to assess whether compounds could reverse the aggregation of soluble A oligomers. (See, e.g., LeVine, H., 3rd, (2002) 4,4(′)-Dianilino-1,1(′)-binaphthyl-5,5(′)-disulfonate: report on non-beta-sheet conformers of Alzheimer's peptide beta(1-40), Arch Biochem Biophys 404, 106; Chen, W. T. et al., (2011) Distinct effects of Zn^2+, Cu^2+, Fe^3+, and Al^3+ on amyloid-beta stability, oligomerization, and aggregation: amyloid-beta destabilization promotes annular protofibril formation, J Biol Chem 286, 9646) Human A 1-42 (China Peptide) was dissolved in DMSO (Sigma) to a stock concentration of 1.5 mM. A ([…]) oligomers were induced with ZnSO4 (15 μM) at 26° C. for 30 min in a buffer (pH 7.4) containing Tris (50 mM), NaCl (150 mM) and bis-ANS (10 μM). Compounds (0.1 to 120 μM) dissolved in DMSO (Sigma) were added for 30 min. CQ and PBT2 were used as positive controls. Endpoint fluorescence (excitation=390 nm, emission=490 nm) was measured with a Flex Station (Molecular Devices) fluorescent plate reader. At each concentration, Aβ fluorescence was normalized to background fluorescence and then expressed as a percentage of vehicle treated control samples. […] Data represents the mean of at least 9 replicates from 3 experiments.

[2] = tested on: patients with Huntington's disease and patients with AD; conditions: phase II clinical trials; cited from earlier work
[3] = tested on: AD patients; conditions: pilot phase II clinical trial, cited from earlier work
[4] = tested on: SH-SY5Y cells; assay: Ionophore assay: cellular metal levels by ICP-MS; assay type: cell-based; conditions: 20 μM, 6 hours; for Cu uptake compared to 8HQ: FIG. 1; for Cu uptake, fold increase than that of PBT2: FIG. 3
Description: Cells were maintained at 37° C. with 5% CO2 and passaged every 3-4 days. Compounds (10 mM) were solubilized in DMSO (Sigma). CQ and PBT2 were used as positive controls. Cells were treated with growth media supplemented with each compound ([…]) or vehicle for 6 hours. Cells were harvested and metal levels were measured with Inductively-Coupled Plasma Mass Spectrometry (Varian), as previously described. […] Data represents the mean and S.E.M. of at least 9 replicates from 3 experiments. A oneway ANVOA with Fisher's LSD test was used to determine statistical differences relative to control (Prism 6, Graphpad).
Dashed line indicates control level. SH-SY5Y cells treated were treated with each compound (20 μM) for 6 hours and cellular metal levels were measured with ICP-MS.
(§1) SH-SY5Y cells treated were treated with each compound (20 μM) for 6 hours and cellular metal levels were measured with ICP-MS. Dashed line indicates control level.
as §1

[5] = Aβ oligomers induced with ZnSO4 (15 μM), bis-ANS fluorescence, compounds 0.1 to 120 μM for 30 min, pH 7.4, read-out: EC50 (μM), reversal of aggregation of soluble Aβ oligomers

Row | EC50 [1, 5] [µM] | Structure (SMILES) | other results
1 | 2 | CN(C)Cc1ccc2c(Cl)cc(Cl)c(O)c2n1 [PBT2, 5,7-Dichloro-2-((dimethylamino)methyl) 8-quinolinol, reference compound] | benefits in patients [2]: shown benefits
2 | 1.8 | Oc1c(I)cc(Cl)c2cccnc12 [Clioquinol (CQ), 5-chloro-7-iodo-quinolin-8-ol] | rate of cognitive decline ([3]; AD patients): attenuated; tolerability [3]: well tolerated
3 | 2.3 | Oc1c(F)cc(I)c2cccnc12 [Compound 14, 7-fluoro-5-iodo-8-hydroxyquinoline] | –
4 | – | Oc1cccc2cc(F)cnc12 [Compound 6] | Cu uptake compared to 8HQ [4]: inferior to 8HQ
5 | 3.7 | Oc1c(Br)cc(F)c2cccnc12 [Compound 16, 7-bromo-5-fluoro-8-hydroxyquinoline] | –
6 | 4.9 | Oc1c(F)cc(Cl)c2cccnc12 [Compound 12, 5-chloro-7-fluoro-8-hydroxyquinoline] | –
7 | 2.5 | Oc1c(I)cc(F)c2cccnc12 [Compound 17, 5-fluoro-7-iodo-8-hydroxyquinoline] | –
8 | 2.3 | CN(Cc1cn(CCF)nn1)Cc1ccc2c(Cl)cc(Cl)c(O)c2n1 [Compound 28, 5,7-dichloro-2-((((1-(2-fluoroethyl)-1H-1,2,3-triazol-4-yl)methyl)(methyl)amino)methyl)quinolin-8-ol] | Cu uptake, fold increase than that of PBT2 [4]: 10 fold
9 | 2.8 | CN(Cc1cn(CCCCF)nn1)Cc1ccc2c(Cl)cc(Cl)c(O)c2n1 [Compound 30, 5,7-dichloro-2-((((1-(4-fluorobutyl)-1H-1,2,3-triazol-4-yl)methyl)(methyl)amino)methyl)quinolin-8-ol] | Cu uptake, fold increase than that of PBT2 [4]: 8 fold
10 | 5.2 | Oc1c(Cl)cc(F)c2cccnc12 [Compound 15, 7-chloro-5-fluoro-8-hydroxyquinoline] | –
11 | – | Oc1cccc2ccc(F)nc12 [Compound 5] | EC50 [1]: > 120 µM; Cu uptake compared to 8HQ [4]: inferior to 8HQ
12 | 4.5 | CN(Cc1cn(CCCF)nn1)Cc1ccc2c(Cl)cc(Cl)c(O)c2n1 [Compound 29, 5,7-dichloro-2-((((1-(3-fluoropropyl)-1H-1,2,3-triazol-4-yl)methyl)(methyl)amino)methyl)quinolin-8-ol] | Cu uptake, fold increase than that of PBT2 [4]: 16 fold
13 | 15.4 | Oc1ccccc1/N=C/c1ccc(F)cc1 [Compound 10] | –
14 | 3.5 | Oc1c(F)cc(Br)c2cccnc12 [Compound 13, 5-bromo-7-fluoro-8-hydroxyquinoline] | –
15 | 2.4 | Oc1c(Cl)cc(Cl)c2ccc(COCCF)nc12 [Compound 23, 5,7-dichloro-2-((2-fluoroethoxy)methyl)quinolin-8-ol] | –

Row | Structure (SMILES) | EC50 [1, 5] [µM] | other results
16 | Oc1c(Cl)cc(Cl)c2ccc(COCCCCF)nc12 [Compound 24, 5,7-dichloro-2-((4-fluorobutoxy)methyl)quinolin-8-ol] | 2 | –
